Values quoted from earlier work as cited in patent US20050255458A1, “Drug discovery assays based on the biology of chronic disease” (priority 2002, published 2005).
Several values for one entry are separate records, joined by “and”; a condition that tells them apart may be missing. Equal values may be shown once. Read-outs that look alike come from different tables or passages of the source.

Experiments:
Settings in all cases: cited from earlier work
[1] = tested on: VCAM-1
[2] = tested on: monocytes on VCAM-1
[3] = biological target: AR (Homo sapiens, UniProt P10275)
Chain of AR (P10275 whole entry): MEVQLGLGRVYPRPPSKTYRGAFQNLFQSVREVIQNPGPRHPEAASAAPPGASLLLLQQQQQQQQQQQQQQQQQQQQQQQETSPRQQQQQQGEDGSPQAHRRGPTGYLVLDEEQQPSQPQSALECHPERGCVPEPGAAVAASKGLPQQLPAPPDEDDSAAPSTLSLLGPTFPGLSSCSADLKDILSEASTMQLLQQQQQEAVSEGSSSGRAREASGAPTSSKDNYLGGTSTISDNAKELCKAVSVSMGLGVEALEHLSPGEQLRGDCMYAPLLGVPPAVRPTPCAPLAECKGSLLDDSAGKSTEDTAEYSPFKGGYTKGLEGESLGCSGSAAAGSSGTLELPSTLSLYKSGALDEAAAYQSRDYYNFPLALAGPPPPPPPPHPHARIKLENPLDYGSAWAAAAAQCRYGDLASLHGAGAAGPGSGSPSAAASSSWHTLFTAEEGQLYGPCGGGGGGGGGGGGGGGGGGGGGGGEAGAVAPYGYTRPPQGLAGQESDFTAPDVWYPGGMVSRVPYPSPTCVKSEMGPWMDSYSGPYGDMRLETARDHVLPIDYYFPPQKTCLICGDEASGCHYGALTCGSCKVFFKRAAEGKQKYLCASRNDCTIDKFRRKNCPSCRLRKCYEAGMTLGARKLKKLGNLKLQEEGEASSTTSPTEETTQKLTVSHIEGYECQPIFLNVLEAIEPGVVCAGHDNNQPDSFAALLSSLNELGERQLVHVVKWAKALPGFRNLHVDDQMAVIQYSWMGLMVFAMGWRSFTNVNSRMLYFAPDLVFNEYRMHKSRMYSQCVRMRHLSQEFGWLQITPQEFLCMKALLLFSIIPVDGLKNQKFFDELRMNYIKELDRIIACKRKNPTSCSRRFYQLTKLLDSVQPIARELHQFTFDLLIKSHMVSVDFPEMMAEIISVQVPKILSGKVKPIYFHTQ

Substance	average percent of monocyte remaining bound ([1]; 8.5 dyn/cm^2, 0-6.99 minutes of stimulation, 1 ng/ml) [%]	average percent of monocyte remaining bound ([1]; 8.5 dyn/cm^2, 7.0-13.99 minutes) [%]	average percent of monocyte remaining bound ([1]; 8.5 dyn/cm^2, 14.0-30.0 minutes) [%]	average percent of monocyte remaining bound ([1]; 36 dyn/cm^2, 0-6.99 minutes) [%]	average percent of monocyte remaining bound ([1]; 36 dyn/cm^2, 14.0-30.0 minutes) [%]	Average velocity [2] [μm/min]	Bmax [3]
MCP-1: a chemokine	51	67	31	36	16	2.43 ± 1.36	
[^3H]methyltrienolone [[3H]methyltrienolone (R1881)]							30.1 ± 4.3 fmol/mg protein and 26.8 ± 3.0 fmol/mg protein and 18.7 ± 4.4 fmol/mg protein
